For 13 molecules, TGI and GI50 results are on record in PubChem BioAssay (NCI).

“And” between values parts separate entries of the source, which are not always exact repeats. Equal entries are not always repeated.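 The compound was tested at five concentrations on cells cultured in 96-well plates, with a 48-hour exposure period. Abbreviation: GI50, concentration required for 50% inhibition of growth. Definition used: TGI = concentration required for complete inhibition of growth.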

Some test systems named below: 786-0 renal; HCC-2998 colon; HCT-15 colon; MOLT-4 leukemia; NCI-H460 lung; OVCAR-5 ovarian; RXF 393 renal; U251 CNS; UACC-257 melanoma; SF-539 CNS.
Assay in all cases: DTP human tumour cell line panel, 48 h

As to `O=C(NCCCl)NCc1ccccc1`, the TGI in the assay on 786-0 renal, with HCC-2998 colon, in the assay on HCT-15 colon, in the assay with MOLT-4 leukemia, with NCI-H460 lung and in the assay with OVCAR-5 ovarian was above 100 µM in each case. The TGI with RXF 393 renal, with U251 CNS and in the assay on UACC-257 melanoma was above 100 µM each time.

For the molecule `COC1C(C)OC(OC2CC(C)(O)Cc3cc4c(c(O)c32)C(=O)c2c(O)cc3c(c2C4=O)OC2OC3(C)C(O)C(N(C)C)C2O)C(OC)C1(C)OC` (stereo not given), the TGI was 2.46 µM with 786-0 renal; 0.447 µM and 0.178 µM in the assay on HCC-2998 colon; 9.85 µM and 15.2 µM with HCT-15 colon; 1.86 µM and 0.233 µM in the assay on NCI-H460 lung. Also, the GI50 in the assay with HCC-2998 colon was 39.3 nM; with HCT-15 colon, 641 nM and 494 nM; in the assay on MOLT-4 leukemia, 36.6 nM and 20 nM; with NCI-H460 lung, 30.3 nM and 15.5 nM; in the assay on RXF 393 renal, 54.8 nM and 19.1 nM; with SF-539 CNS, 38 nM and 17.1 nM. For the same molecule, the concentration for 50% growth inhibition (GI50) in the assay on U251 CNS was 45.9 nM and 16 nM; in the assay with UACC-257 melanoma, 78.4 nM and 38.8 nM.

For `Cc1cc(N(CCC#N)CCC#N)ccc1CC1N=C(c2ccccc2)OC1=O` (stereo not given), the total growth inhibition concentration (TGI) in the assay with 786-0 renal, with HCC-2998 colon, with HCT-15 colon, with MOLT-4 leukemia, with NCI-H460 lung and in the assay on OVCAR-5 ovarian was above 100 µM each time. The TGI in the assay with SF-539 CNS, in the assay on U251 CNS and in the assay on UACC-257 melanoma was above 100 µM throughout.

In the case of `NNC(=S)NN/C=C(\C=Nc1ccccc1)[N+](=O)[O-]`, the TGI with 786-0 renal, with HCC-2998 colon, in the assay with OVCAR-5 ovarian, in the assay on RXF 393 renal, with SF-539 CNS and in the assay on UACC-257 melanoma was above 100 µM throughout.

Take `COc1cc(CC2C(=O)OCC2[C@@H](OC(C)=O)c2ccc3c(c2)OCO3)c(Br)c(OC)c1OC` (stereo not given in full): the TGI with 786-0 renal, with HCC-2998 colon, in the assay with HCT-15 colon, with MOLT-4 leukemia, in the assay on NCI-H460 lung and with RXF 393 renal was above 100 µM each time. Moreover, the TGI in the assay with SF-539 CNS and with UACC-257 melanoma was above 100 µM throughout.

As for `CN(CC1NCCCC1O)C12CC3CC(CC(C3)C1)C2` (stereo not given), the TGI with 786-0 renal, in the assay with HCC-2998 colon, with HCT-15 colon, with MOLT-4 leukemia, in the assay with NCI-H460 lung and in the assay on OVCAR-5 ovarian was above 100 µM throughout. For the same molecule, the concentration for total growth inhibition (TGI) with SF-539 CNS, in the assay on U251 CNS and with UACC-257 melanoma was above 100 µM throughout.

Consider `C=CNC(=S)n1nc(-c2ccccc2NC(=O)C(F)(F)F)c(=O)n(C(=S)NC=C)c1=S`, for which the TGI in the assay with 786-0 renal is above 1 µM; with HCC-2998 colon it was above 100 µM; with HCT-15 colon, above 100 µM; with MOLT-4 leukemia, above 100 µM; in the assay on NCI-H460 lung, 47.3 µM; with OVCAR-5 ovarian, above 100 µM. Also, the TGI in the assay on RXF 393 renal was above 100 µM; in the assay with SF-539 CNS, above 1 µM; in the assay on U251 CNS, above 100 µM.

With `O=C(O)CCCc1cc2c(s1)-c1cccc3cccc-2c13`, the TGI in the assay on 786-0 renal was above 100 µM; in the assay with HCC-2998 colon it was 50.2 µM; in the assay on HCT-15 colon, 51.8 µM; with MOLT-4 leukemia, 60.8 µM; with NCI-H460 lung it was above 100 µM; in the assay on OVCAR-5 ovarian, above 100 µM. Moreover, the TGI in the assay on SF-539 CNS was above 100 µM; in the assay on U251 CNS, 53.8 µM; in the assay with UACC-257 melanoma it was 53.9 µM.

`CSCC(COC(C)=O)(CSC)c1ccncc1`: the TGI in the assay on 786-0 renal, in the assay on HCC-2998 colon, in the assay with HCT-15 colon, in the assay on MOLT-4 leukemia, in the assay on NCI-H460 lung and with RXF 393 renal was above 100 µM each time. Besides, the TGI with SF-539 CNS, in the assay on U251 CNS and with UACC-257 melanoma was above 100 µM throughout.

`O=C(CC(=O)N1N=C(c2ccccc2)C(N=Nc2ccccc2Cl)C1=O)Nc1ccccc1Cl` (stereo not given): the concentration for total growth inhibition (TGI) in the assay with 786-0 renal was 49.6 µM; in the assay on HCC-2998 colon, above 100 µM; with HCT-15 colon, above 100 µM; in the assay with MOLT-4 leukemia it was above 100 µM; with NCI-H460 lung it was above 100 µM; in the assay on OVCAR-5 ovarian, above 100 µM. For the same molecule, the TGI in the assay with SF-539 CNS, in the assay with U251 CNS and in the assay with UACC-257 melanoma was above 100 µM each time.

In the case of `CC(C)OC(=O)c1cccnc1/C=N/O`, the TGI in the assay with 786-0 renal, in the assay on HCC-2998 colon, in the assay on HCT-15 colon, in the assay on MOLT-4 leukemia, in the assay on NCI-H460 lung and in the assay on OVCAR-5 ovarian was above 100 µM throughout. The TGI with SF-539 CNS, in the assay on U251 CNS and with UACC-257 melanoma was above 100 µM each time.

As to `Clc1ccc(Nc2ncnc3c2sc2ncccc23)c(Cl)c1`, the GI50 in the assay with 786-0 renal is below 10 nM; in the assay with HCT-15 colon it was 52 nM; with MOLT-4 leukemia, 38.2 nM; in the assay on NCI-H460 lung it was below 10 nM; in the assay on OVCAR-5 ovarian, 57.6 nM; in the assay with RXF 393 renal it was 49.2 nM. Also, the GI50 in the assay on SF-539 CNS is 22.5 nM; in the assay with U251 CNS, 15.2 nM; in the assay with UACC-257 melanoma, 55.7 nM. For the same molecule, the TGI in the assay with 786-0 renal, in the assay with HCT-15 colon, with MOLT-4 leukemia, in the assay on NCI-H460 lung, with OVCAR-5 ovarian and in the assay on RXF 393 renal was above 100 µM throughout. For the same molecule, the TGI is 7.37 µM in the assay with SF-539 CNS, above 100 µM in the assay with U251 CNS and above 100 µM in the assay with UACC-257 melanoma.

For `NC(CSC1(c2ccc(Cl)cc2)c2ccccc2-c2ccccc21)C(=O)O` (stereo not given), the concentration for total growth inhibition (TGI) is 50.9 µM with 786-0 renal; 47.3 µM with HCT-15 colon; 71.5 µM with MOLT-4 leukemia; 39.5 µM in the assay with NCI-H460 lung; 79.5 µM with OVCAR-5 ovarian; above 100 µM in the assay on RXF 393 renal. For the same molecule, the TGI was found to be 48.5 µM with SF-539 CNS, 29.6 µM with U251 CNS and 34.4 µM in the assay on UACC-257 melanoma.
